# Results reported in the supplement of paper PMC10307832.
# Legend:
# Assay in all cases: relative viability (nuclei count vs DMSO), 5 days (fraction); higher = more cells survive
# COR-L23 = test system: COR-L23
# In short: (§1)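 Lung cancer cell lines were pin-tool dosed in 1536-well plates on the day after seeding, with either a lone drug or a fixed anchor-drug dose plus five library-drug doses (not always all listed) in √10 steps. Nuclei were counted on 4× images after 5 days. Relative viability is the ratio of treated-well to vehicle-well nuclei counts, with each value a median of duplicate plates.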
# ChaGo-K-1 = test system: ChaGo-K-1
# In short: as §1
# EMC-BAC-2 = test system: EMC-BAC-2
# In short: as §1
# EPLC-272H = test system: EPLC-272H
# In short: as §1
# H3255 = test system: H3255
# In short: as §1
# HCC-44 = test system: HCC-44
# In short: as §1
# HCC-827 = test system: HCC-827
# In short: as §1
# LCLC-103H = test system: LCLC-103H
# In short: as §1
# LU99A = test system: LU99A
# In short: as §1
# NCI-H1395 = test system: NCI-H1395
# In short: as §1
# NCI-H1651 = test system: NCI-H1651
# In short: as §1
# NCI-H1793 = test system: NCI-H1793
# In short: as §1
# NCI-H1944 = test system: NCI-H1944
# In short: as §1
# NCI-H2023 = test system: NCI-H2023
# In short: as §1
# NCI-H2085 = test system: NCI-H2085
# In short: as §1
# NCI-H2087 = test system: NCI-H2087
# In short: as §1
# NCI-H2405 = test system: NCI-H2405
# In short: as §1
# NCI-H520 = test system: NCI-H520
# In short: as §1
# NCI-H650 = test system: NCI-H650
# In short: as §1
# NCI-H838 = test system: NCI-H838
# In short: as §1
# SK-MES-1 = test system: SK-MES-1
# In short: as §1
structure (smiles),measurement,setting,value
Cc1sc2c(c1C)C(c1ccc(Cl)cc1)=N[C@@H](CC(=O)OC(C)(C)C)c1nnc(C)n1-2 [JQ1] + Cc1cc(Nc2cc(N3CCN(C)CC3)nc(Sc3ccc(NC(=O)C4CC4)cc3)n2)n[nH]1 [Tozasertib] (partner 0.1 µM),relative viability,COR-L23; first compound 0.04 µM,0.217
same,relative viability,COR-L23; first compound 0.1265 µM,0.148
same,relative viability,COR-L23; first compound 0.4 µM,0.154
same,relative viability,COR-L23; first compound 1.265 µM,0.11
same,relative viability,COR-L23; first compound 4 µM,0.109
same,relative viability,ChaGo-K-1; first compound 0.04 µM,0.205
same,relative viability,ChaGo-K-1; first compound 0.1265 µM,0.224
same,relative viability,ChaGo-K-1; first compound 0.4 µM,0.168
same,relative viability,ChaGo-K-1; first compound 1.265 µM,0.158
same,relative viability,ChaGo-K-1; first compound 4 µM,0.164
same,relative viability,EMC-BAC-2; first compound 0.04 µM,0.248
same,relative viability,EMC-BAC-2; first compound 0.1265 µM,0.235
same,relative viability,EMC-BAC-2; first compound 0.4 µM,0.221
same,relative viability,EMC-BAC-2; first compound 1.265 µM,0.174
same,relative viability,EMC-BAC-2; first compound 4 µM,0.174
same,relative viability,EPLC-272H; first compound 0.04 µM,0.418
same,relative viability,EPLC-272H; first compound 0.1265 µM,0.24
same,relative viability,EPLC-272H; first compound 0.4 µM,0.373
same,relative viability,EPLC-272H; first compound 1.265 µM,0.257
same,relative viability,EPLC-272H; first compound 4 µM,0.258
same,relative viability,H3255; first compound 0.04 µM,0.65
same,relative viability,H3255; first compound 0.1265 µM,0.625
same,relative viability,H3255; first compound 0.4 µM,0.64
same,relative viability,H3255; first compound 1.265 µM,0.426
same,relative viability,H3255; first compound 4 µM,0.204
same,relative viability,HCC-44; first compound 0.04 µM,0.888
same,relative viability,HCC-44; first compound 0.1265 µM,0.345
same,relative viability,HCC-44; first compound 0.4 µM,0.326
same,relative viability,HCC-44; first compound 1.265 µM,0.286
same,relative viability,HCC-44; first compound 4 µM,0.136
same,relative viability,HCC-827; first compound 0.04 µM,0.398
same,relative viability,HCC-827; first compound 0.4 µM,0.328
same,relative viability,HCC-827; first compound 1.265 µM,0.27
same,relative viability,HCC-827; first compound 4 µM,0.213
same,relative viability,LCLC-103H; first compound 0.04 µM,0.429
same,relative viability,LCLC-103H; first compound 0.1265 µM,0.384
same,relative viability,LCLC-103H; first compound 0.4 µM,0.288
same,relative viability,LCLC-103H; first compound 1.265 µM,0.289
same,relative viability,LCLC-103H; first compound 4 µM,0.171
same,relative viability,LU99A; first compound 0.04 µM,0.277
same,relative viability,LU99A; first compound 0.1265 µM,0.304
same,relative viability,LU99A; first compound 0.4 µM,0.237
same,relative viability,LU99A; first compound 1.265 µM,0.188
same,relative viability,LU99A; first compound 4 µM,0.159
same,relative viability,NCI-H1395; first compound 0.04 µM,0.734
same,relative viability,NCI-H1395; first compound 0.1265 µM,0.681
same,relative viability,NCI-H1395; first compound 0.4 µM,0.652
same,relative viability,NCI-H1395; first compound 1.265 µM,0.495
same,relative viability,NCI-H1395; first compound 4 µM,0.419
same,relative viability,NCI-H1651; first compound 0.04 µM,0.69
same,relative viability,NCI-H1651; first compound 0.1265 µM,0.683
same,relative viability,NCI-H1651; first compound 0.4 µM,0.672
same,relative viability,NCI-H1651; first compound 1.265 µM,0.31
same,relative viability,NCI-H1651; first compound 4 µM,0.24
same,relative viability,NCI-H1793; first compound 0.04 µM,0.355
same,relative viability,NCI-H1793; first compound 0.1265 µM,0.316
same,relative viability,NCI-H1793; first compound 0.4 µM,0.282
same,relative viability,NCI-H1793; first compound 1.265 µM,0.185
same,relative viability,NCI-H1793; first compound 4 µM,0.226
same,relative viability,NCI-H1944; first compound 0.04 µM,0.231
same,relative viability,NCI-H1944; first compound 0.1265 µM,0.225
same,relative viability,NCI-H1944; first compound 0.4 µM,0.227
same,relative viability,NCI-H1944; first compound 1.265 µM,0.208
same,relative viability,NCI-H1944; first compound 4 µM,0.185
same,relative viability,NCI-H2023; first compound 0.04 µM,0.354
same,relative viability,NCI-H2023; first compound 0.1265 µM,0.308
same,relative viability,NCI-H2023; first compound 0.4 µM,0.186
same,relative viability,NCI-H2023; first compound 1.265 µM,0.1
same,relative viability,NCI-H2023; first compound 4 µM,0.0918
same,relative viability,NCI-H2085; first compound 0.04 µM,0.761
same,relative viability,NCI-H2085; first compound 0.1265 µM,0.727
same,relative viability,NCI-H2085; first compound 0.4 µM,0.63
same,relative viability,NCI-H2085; first compound 1.265 µM,0.414
same,relative viability,NCI-H2085; first compound 4 µM,0.328
same,relative viability,NCI-H2087; first compound 0.04 µM,0.253
same,relative viability,NCI-H2087; first compound 0.1265 µM,0.212
same,relative viability,NCI-H2087; first compound 0.4 µM,0.205
same,relative viability,NCI-H2087; first compound 1.265 µM,0.128
same,relative viability,NCI-H2087; first compound 4 µM,0.144
same,relative viability,NCI-H2405; first compound 0.04 µM,0.716
same,relative viability,NCI-H2405; first compound 0.1265 µM,0.712
same,relative viability,NCI-H2405; first compound 0.4 µM,0.723
same,relative viability,NCI-H2405; first compound 1.265 µM,0.584
same,relative viability,NCI-H2405; first compound 4 µM,0.498
same,relative viability,NCI-H520; first compound 0.04 µM,0.508
same,relative viability,NCI-H520; first compound 0.1265 µM,0.406
same,relative viability,NCI-H520; first compound 0.4 µM,0.332
same,relative viability,NCI-H520; first compound 1.265 µM,0.296
same,relative viability,NCI-H520; first compound 4 µM,0.25
same,relative viability,NCI-H650; first compound 0.04 µM,0.657
same,relative viability,NCI-H650; first compound 0.1265 µM,0.541
same,relative viability,NCI-H650; first compound 0.4 µM,0.368
same,relative viability,NCI-H650; first compound 1.265 µM,0.21
same,relative viability,NCI-H650; first compound 4 µM,0.177
same,relative viability,NCI-H838; first compound 0.04 µM,0.26
same,relative viability,NCI-H838; first compound 0.1265 µM,0.221
same,relative viability,NCI-H838; first compound 0.4 µM,0.263
same,relative viability,NCI-H838; first compound 1.265 µM,0.179
same,relative viability,NCI-H838; first compound 4 µM,0.134
same,relative viability,SK-MES-1; first compound 0.04 µM,0.929
same,relative viability,SK-MES-1; first compound 0.1265 µM,0.507
same,relative viability,SK-MES-1; first compound 0.4 µM,0.419
same,relative viability,SK-MES-1; first compound 1.265 µM,0.208
same,relative viability,SK-MES-1; first compound 4 µM,0.171
